Reference: PubChem BioAssay AID1963423 (Molecular Pharmacology Branch, DTP, NCI, 2024)

Test system: 439559-082-T-J2-PDC complex spheroid growth
Experiment: Anticancer human tumor 439559-082-T-J2-PDC patient-derived colon adenocarcinoma cell line growth inhibition [Asc]
Conditions: for IC50: curve of first compound; for viability, T/C: stronger effect = lower value
Outline: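 Tumor cells were grown as complex spheroids with human endothelial cells (HUVEC) and human mesenchymal stem cells as stroma. Agents were tested alone and in combination, in half-log steps down from the clinical Cmax, or from 10 microM where Cmax was unknown.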

[1] = second compound 0.00316 µM, first compound 0.00316 µM
[2] = second compound 0.00316 µM, first compound 0.01 µM
[3] = second compound 0.00316 µM, first compound 0.0316 µM
[4] = second compound 0.00316 µM, first compound 0.1 µM
[5] = second compound 0.00316 µM, first compound 0.316 µM
[6] = second compound 0.00316 µM, first compound 1 µM
[7] = second compound 0.01 µM, first compound 0.00316 µM
[8] = second compound 0.01 µM, first compound 0.01 µM
[9] = second compound 0.01 µM, first compound 0.0316 µM
[10] = second compound 0.01 µM, first compound 0.1 µM
[11] = second compound 0.01 µM, first compound 0.316 µM
[12] = second compound 0.01 µM, first compound 1 µM
[13] = second compound 0.0316 µM, first compound 0.00316 µM
[14] = second compound 0.0316 µM, first compound 0.01 µM
[15] = second compound 0.0316 µM, first compound 0.0316 µM
[16] = second compound 0.0316 µM, first compound 0.1 µM
[17] = second compound 0.0316 µM, first compound 0.316 µM
[18] = second compound 0.0316 µM, first compound 1 µM
[19] = second compound 0.1 µM, first compound 0.00316 µM
[20] = second compound 0.1 µM, first compound 0.01 µM
[21] = second compound 0.1 µM, first compound 0.0316 µM
[22] = second compound 0.1 µM, first compound 0.1 µM
[23] = second compound 0.1 µM, first compound 0.316 µM
[24] = second compound 0.1 µM, first compound 1 µM
[25] = second compound 0.316 µM, first compound 0.00316 µM
[26] = second compound 0.316 µM, first compound 0.01 µM
[27] = second compound 0.316 µM, first compound 0.0316 µM
[28] = second compound 0.316 µM, first compound 0.1 µM
[29] = second compound 0.316 µM, first compound 0.316 µM
[30] = second compound 0.316 µM, first compound 1 µM
[31] = second compound 1 µM, first compound 0.00316 µM
[32] = second compound 1 µM, first compound 0.01 µM
[33] = second compound 1 µM, first compound 0.0316 µM
[34] = second compound 1 µM, first compound 0.1 µM
[35] = second compound 1 µM, first compound 0.316 µM
[36] = second compound 1 µM, first compound 1 µM
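Also: spheroids exposed to agents for 7 days starting day 3 after seeding.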
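For viability, T/C in this document: percent of DMSO vehicle control viability with 100% = vehicle.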

Work on `CCN1CCN(Cc2ccc(Nc3ncc(F)c(-c4cc(F)c5nc(C)n(C(C)C)c5c4)n3)nc2)CC1` + CNC(C)C(=O)NC1CN(S(=O)(=O)c2cccc(S(=O)(=O)N3CCC4CCC(C(=O)NC(c5ccccc5)c5ccccc5)N4C(=O)C(NC(=O)C(C)NC)C3)c2)CCC2CCC(C(=O)NC(c3ccccc3)c3ccccc3)N2C1=O yielded an IC50 (second compound 0.00316 µM) greater than 1 µM, an IC50 (second compound 0.01 µM) greater than 1 µM and an IC50 (second compound 0.0316 µM) greater than 1 µM. For the same molecule, the IC50 (second compound 0.1 µM) was greater than 1 µM, the IC50 (second compound 0.316 µM) was greater than 1 µM and the IC50 (second compound 1 µM) was greater than 1 µM. The viability, T/C [1] was 99.5%, the viability, T/C [2] was 92.6% and the viability, T/C [3] was 91%. The viability, T/C [4] was 94.1%, the viability, T/C [5] was 85.8% and the viability, T/C [6] was 66.9%. The viability, T/C [7] was 107%, the viability, T/C [8] was 101% and the viability, T/C [9] was 87.3%. For the same molecule, the viability, T/C [10] was 95.4%, the viability, T/C [11] was 88% and the viability, T/C [12] was 73.1%. It also gave a viability, T/C [13] of 95.8%, a viability, T/C [14] of 111% and a viability, T/C [15] of 89.6%. The viability, T/C [16] was 96.8%, the viability, T/C [17] was 94.5% and the viability, T/C [18] was 78.5%. The viability, T/C [19] was 103%, the viability, T/C [20] was 87.9% and the viability, T/C [21] was 99%. It also gave a viability, T/C [22] of 94.6%, a viability, T/C [23] of 95.5% and a viability, T/C [24] of 64.2%. It also gave a viability, T/C [25] of 91.6%, a viability, T/C [26] of 84.2% and a viability, T/C [27] of 86.8%. For the same molecule, the viability, T/C [28] was 75.5%, the viability, T/C [29] was 82% and the viability, T/C [30] was 65.5%. It also gave a viability, T/C [31] of 88.9%, a viability, T/C [32] of 77.3% and a viability, T/C [33] of 69.4%. The viability, T/C [34] was 69.2%, the viability, T/C [35] was 62.1% and the viability, T/C [36] was 48.9%.
`NC(=O)C(=Cn1cnc(-c2cc(C(F)(F)F)cc(C(F)(F)F)c2)n1)c1cncnc1` + CNC(C)C(=O)NC1CN(S(=O)(=O)c2cccc(S(=O)(=O)N3CCC4CCC(C(=O)NC(c5ccccc5)c5ccccc5)N4C(=O)C(NC(=O)C(C)NC)C3)c2)CCC2CCC(C(=O)NC(c3ccccc3)c3ccccc3)N2C1=O gave an IC50 (second compound 0.00316 µM) greater than 0.3 µM, an IC50 (second compound 0.01 µM) greater than 0.3 µM and an IC50 (second compound 0.0316 µM) greater than 0.3 µM. The IC50 (second compound 0.1 µM) was greater than 0.3 µM, the IC50 (second compound 0.316 µM) was greater than 0.3 µM and the IC50 (second compound 1 µM) was greater than 0.3 µM. For the same molecule, the viability, T/C (second compound 0.00316 µM, first compound 0.000949 µM) was 105%, the viability, T/C (second compound 0.00316 µM, first compound 0.003 µM) was 101% and the viability, T/C (second compound 0.00316 µM, first compound 0.00949 µM) was 102%. For the same molecule, the viability, T/C (second compound 0.00316 µM, first compound 0.03 µM) was 97%, the viability, T/C (second compound 0.00316 µM, first compound 0.0949 µM) was 98.2% and the viability, T/C (second compound 0.00316 µM, first compound 0.3 µM) was 79.4%. The viability, T/C (second compound 0.01 µM, first compound 0.000949 µM) was 101%, the viability, T/C (second compound 0.01 µM, first compound 0.003 µM) was 92.3% and the viability, T/C (second compound 0.01 µM, first compound 0.00949 µM) was 94.1%. For the same molecule, the viability, T/C (second compound 0.01 µM, first compound 0.03 µM) was 98.7%, the viability, T/C (second compound 0.01 µM, first compound 0.0949 µM) was 102% and the viability, T/C (second compound 0.01 µM, first compound 0.3 µM) was 92.4%. The viability, T/C (second compound 0.0316 µM, first compound 0.000949 µM) was 94.1%, the viability, T/C (second compound 0.0316 µM, first compound 0.003 µM) was 87.3% and the viability, T/C (second compound 0.0316 µM, first compound 0.00949 µM) was 100%. It also gave a viability, T/C (second compound 0.0316 µM, first compound 0.03 µM) of 99.7%, a viability, T/C (second compound 0.0316 µM, first compound 0.0949 µM) of 108% and a viability, T/C (second compound 0.0316 µM, first compound 0.3 µM) of 84.8%. It also gave a viability, T/C (second compound 0.1 µM, first compound 0.000949 µM) of 96.3%, a viability, T/C (second compound 0.1 µM, first compound 0.003 µM) of 103% and a viability, T/C (second compound 0.1 µM, first compound 0.00949 µM) of 94.9%. For the same molecule, the viability, T/C (second compound 0.1 µM, first compound 0.03 µM) was 99.3%, the viability, T/C (second compound 0.1 µM, first compound 0.0949 µM) was 101% and the viability, T/C (second compound 0.1 µM, first compound 0.3 µM) was 87.2%. The viability, T/C (second compound 0.316 µM, first compound 0.000949 µM) was 100%, the viability, T/C (second compound 0.316 µM, first compound 0.003 µM) was 99.2% and the viability, T/C (second compound 0.316 µM, first compound 0.00949 µM) was 87.2%. It also gave a viability, T/C (second compound 0.316 µM, first compound 0.03 µM) of 86.2%, a viability, T/C (second compound 0.316 µM, first compound 0.0949 µM) of 97% and a viability, T/C (second compound 0.316 µM, first compound 0.3 µM) of 82.8%. It also gave a viability, T/C (second compound 1 µM, first compound 0.000949 µM) of 79.1%, a viability, T/C (second compound 1 µM, first compound 0.003 µM) of 80% and a viability, T/C (second compound 1 µM, first compound 0.00949 µM) of 86.8%. It also gave a viability, T/C (second compound 1 µM, first compound 0.03 µM) of 71.4%, a viability, T/C (second compound 1 µM, first compound 0.0949 µM) of 88.7% and a viability, T/C (second compound 1 µM, first compound 0.3 µM) of 74.2%.
`O=C(c1ccc(F)c(F)c1Nc1ccc(I)cc1F)N1CC(O)([C@@H]2CCCCN2)C1` + CNC(C)C(=O)NC1CN(S(=O)(=O)c2cccc(S(=O)(=O)N3CCC4CCC(C(=O)NC(c5ccccc5)c5ccccc5)N4C(=O)C(NC(=O)C(C)NC)C3)c2)CCC2CCC(C(=O)NC(c3ccccc3)c3ccccc3)N2C1=O gave an IC50 (second compound 0.00316 µM) of 0.262 µM, an IC50 (second compound 0.01 µM) of 0.248 µM and an IC50 (second compound 0.0316 µM) of 0.253 µM. The IC50 (second compound 0.1 µM) was 0.228 µM, the IC50 (second compound 0.316 µM) was 0.141 µM and the IC50 (second compound 1 µM) was 0.124 µM. It also gave a viability, T/C [1] of 96.6%, a viability, T/C [2] of 77.4% and a viability, T/C [3] of 76.8%. It also gave a viability, T/C [4] of 67.9%, a viability, T/C [5] of 48.6% and a viability, T/C [6] of 16.2%. It also gave a viability, T/C [7] of 99.5%, a viability, T/C [8] of 107% and a viability, T/C [9] of 87.7%. For the same molecule, the viability, T/C [10] was 61.9%, the viability, T/C [11] was 51% and the viability, T/C [12] was 25.6%. It also gave a viability, T/C [13] of 108%, a viability, T/C [14] of 95.6% and a viability, T/C [15] of 89.5%. It also gave a viability, T/C [16] of 63.5%, a viability, T/C [17] of 47.6% and a viability, T/C [18] of 27.1%. For the same molecule, the viability, T/C [19] was 86.8%, the viability, T/C [20] was 98.3% and the viability, T/C [21] was 86.7%. It also gave a viability, T/C [22] of 61.6%, a viability, T/C [23] of 46.7% and a viability, T/C [24] of 17%. The viability, T/C [25] was 89.8%, the viability, T/C [26] was 101% and the viability, T/C [27] was 69.8%. For the same molecule, the viability, T/C [28] was 51.4%, the viability, T/C [29] was 46.8% and the viability, T/C [30] was 25%. The viability, T/C [31] was 72.2%, the viability, T/C [32] was 68% and the viability, T/C [33] was 68.2%. For the same molecule, the viability, T/C [34] was 48.4%, the viability, T/C [35] was 39% and the viability, T/C [36] was 15.5%.
